Where two headings read alike, the source gives them in different places. One block for each molecule: values may come before it.
Experiments:
MM-1 cells = conditions: 17-AAG treated MM-1 cells; Mitsiades et al. 2006; cited from earlier work
[1] = system: Bortezomib refractory multiple myeloma cell lines; conditions: Mitsiades et al. 2006; cited from earlier work
physchem = type: physicochemical; conditions: for solubility thermodynamic / solubility: aqueous buffer, thermodynamic from solid, read-out: L-Lactate Salt of Compound of Formula (I) Concentration
Experimental: Buffers were prepared using monobasic and dibasic salts of sodium phosphate in order to achieve the correct buffer concentrations and pH as follows:
The pH of each buffer was the target pH±0.05. Minor adjustments with small amounts of dilute sodium hydroxide were made to both of the 200 mM buffers to meet this criterion.
(§1) Aliquots of 1 g of the L-lactate salt of the compound of formula (I) were weighed into individual 20 ml scintillation vials and 10 ml of each buffer was added to a vial. An additional sample was prepared in deionised water. Samples were covered in aluminium foil to protect from light and mixed using a magnetic stirrer overnight.
(§2) The appearance of each sample was recorded. Samples were transferred to centrifuge tubes and centrifuged at 3500rpm for 15 minutes. The samples prepared using the 200 mM buffers were visually free of undissolved material, but were centrifuged in order to make sure that all samples were treated the same. The supernatants were retained for determination of compound of formula (I) by UV and pH measurement.
(§3) Assay by UV: A calibration curve was prepared using the L-lactate salt of the compound of formula (I) dissolved in deionised water and covering the range 0 to 0.10 mg/ml. Absorbance was determined at 286 nm. Samples were diluted as necessary using deionised water and absorbance determined at 286 nm versus a blank. The content of the compound of formula (I) was determined using the standard curve. All UV readings were taken in duplicate.

[2] = Solubility in deionised water, acetate, succinate and citrate buffers (Example 5); type: physicochemical; conditions: thermodynamic from solid, read-out: Solubility L-lactate salt of compound of formula (I)
Experimental: as §1, §2, §3
In a manner analogous to Example 3, formulations were prepared of the L-lactate salt of the compound of formula (I) with acetate, succinate and citrate buffers at different concentrations and at different pH. As shown in the table below, neither the acetate nor citrate buffers were as useful as the phosphate buffer formulation of Example 3, but the succinate buffer gave good L-lactate salt solubility.

[3] = Effect of surfactant (polysorbate 80, Tween) on solubility in phosphate buffer pH 7.2 (Example 6); type: physicochemical; conditions: for increase in solubility on addition of Tween: physiological pH, 1-8 (w/v) Tween versus no Tween; for solubility: sodium phosphate buffer, 200 mM phosphate, read-out: Solubility of L-lactate salt of compound of formula (I)
Experimental: Solutions of sodium phosphate buffer at a pH of 7.2 were prepared with and without polysorbate 80 (Tween) and the solubilities of the L-lactate salt of the compound of formula (I) were determined.

K562 cells = conditions: Gone et al. 2002; cited from earlier work
[4] = system: solid tumours refractory to standard therapy; conditions: cited from earlier work
[5] = system: patients with advanced solid tumours; experiment: Phase I study, Two-Consecutive Day (QDx2) dosing schedule; type: in vivo, human
[6] = system: vemurafenib sensitive and resistant models of melanoma; conditions: Rodriguez-Lopez et al., AACR 2012; cited from earlier work
HSP90 = experiment: Hsp90 inhibition (statement); type: biochemical; conditions: no value
refractory solid tumours = conditions: including three GIST patients; Mahadevan et al. 2012; cited from earlier work

SMILES: C=CCNC1=C2C[C@@H](C)C[C@H](OC)[C@H](O)[C@@H](C)/C=C(\C)[C@H](OC(N)=O)[C@@H](OC)/C=C\C=C(/C)C(=O)NC(=CC1=O)C2=O [17-AAG]
cell surface levels of IGF-1R and IL-6R (MM-1 cells): diminished
proliferation [1]: potently inhibits proliferation

solubility thermodynamic (physchem; sodium phosphate buffer 50 mM/pH 5.0, pH of supernatant 5.13): 77.3 mg/mL
solubility thermodynamic (physchem; sodium phosphate buffer 50 mM/pH 5.5, pH of supernatant 5.18): 75.9 mg/mL
solubility (physchem; sodium phosphate buffer 200 mM/pH 5.0 (fifth line of table), pH of supernatant 4.99): ≥ 95.7 mg/mL
solubility (physchem; sodium phosphate buffer 200 mM/pH 5.5, pH of supernatant 5.08): ≥ 94.8 mg/mL
L-Lactate Salt of Compound of Formula (I) Concentration (physchem; sodium phosphate buffer 100 mM/pH 5.5, pH of supernatant 5.10): 86.3 mg/mL
L-Lactate Salt of Compound of Formula (I) Concentration (physchem; sodium phosphate buffer 200 mM/pH 5.0 (third line of table), pH of supernatant 5.05): 89.0 mg/mL
solubility ([2]; acetate buffer, aqueous buffer, 50 mM Acetate pH 5.5, pH 4.87): 24.4 mg/mL
solubility ([2]; acetate buffer, aqueous buffer, 50 mM Acetate pH 6.0, pH 5.03): 19.1 mg/mL
solubility ([2]; citrate buffer, aqueous buffer, 50 mM Citrate pH 5.5, pH 5.23): 85.6 mg/mL
solubility ([2]; citrate buffer, aqueous buffer, 50 mM Citrate pH 6.0, pH 5.55): 83.9 mg/mL
solubility ([2]; succinate buffer, aqueous buffer, 50 mM Succinate pH 5.5, pH 5.38): 78.3 mg/mL
solubility ([2]; succinate buffer, aqueous buffer, 50 mM Succinate pH 6.0, pH 5.69): 78.3 mg/mL
solubility ([2]; succinate buffer, aqueous buffer, 100 mM Succinate pH 6.0, pH 5.76): 89.9 mg/mL
solubility ([2]; succinate buffer, pH 5.3, aqueous buffer, 100 mM Succinate pH 5.5, pH 5.30): 89.2 mg/mL
solubility ([2]; Deionised water, pH 5.52): 59.5 mg/mL
increase in solubility on addition of Tween [3]: 1.5 fold
increase in solubility on addition of Tween ([3]; listed as lactate salt of the compound of formula (I)): approximately 1.5 fold
solubility ([3]; aqueous buffer, pH 7.2, Tween 0 % (w/v)): 21 mg/mL
solubility ([3]; aqueous with cosolvent or surfactant or cyclodextrin, pH 7.2, Tween 1-8 % (w/v)): 33 to 34 mg/mL
SMILES: CC(C)c1cc(C(=O)N2Cc3ccc(CN4CCN(C)CC4)cc3C2)c(O)cc1O.C[C@H](O)C(=O)O [(2,4-Dihydroxy-5-isopropyl-phenyl)-[5-(4-methyl-piperazin-1-ylmethyl)-1,3-dihydro-isoindol-2-yl]-methanone L-lactate salt]

SMILES: Cc1ccc(NC(=O)c2ccc(CN3CCN(C)CC3)cc2)cc1Nc1nccc(-c2cccnc2)n1 [Gleevec]
apoptosis (K562 cells): induces apoptosis

SMILES: CC(C)c1cc(C(=O)N2Cc3ccc(CN4CCN(C)CC4)cc3C2)c(O)cc1O [compound of formula (I), (2,4-Dihydroxy-5-isopropyl-phenyl)-[5-(4-methyl-piperazin-1-ylmethyl)-1,3-dihydro-isoindol-2-yl]-methanone]
PET scan, metabolic activity of the tumour ([4]; GIST patient, 220 mg/m^2 weekly, before and after treatment, Shapiro 2011): substantial reduction in the metabolic activity of the tumour
stable disease for beyond 2 cycles of treatment ([4]; twice weekly schedule, further patients, Shapiro et al. 2010): five of the original twenty one patients
stable disease for at least six months ([4]; twice weekly schedule, one melanoma, one thyroid cancer, Shapiro et al. 2010): two of the original twenty one patients
tolerability [5]: well tolerated
efficacy in melanoma models [6]: effective
HSP90 inhibition (HSP90): potent HSP90 inhibitor
objective and durable partial response and stable disease (refractory solid tumours): five patients

From patent publication US20180169117A1, “PHARMACEUTICAL FORMULATION COMPRISING A SUBSTITUTED PHENYL - (1,3-DIHYDRO-ISOINDOL-2-YL) - METHANONE” (OTSUKA PHARMACEUTICAL CO., LTD., priority 2014, published 2018)
